Measurements: patent publication US12172995B2, “Substituted indole and indazole compounds” (BRISTOL-MYERS SQUIBB COMPANY, priority 2018, dated 2024)

How the values were obtained:
Assay type in all cases: cell-based
human TLR8 = biological target: T1, human TLR8 (Homo sapiens, UniProt Q9NR97); assay: TLR8 inhibition reporter assay (HEK-Blue SEAP); settings: HEK-Blue cells overexpressing human TLR8, stimulated with R848 15.9 μM, 22 hour incubation
T1 construct: host or cells: HEK-Blue cells
T1 sequence (Q9NR97 27-1041): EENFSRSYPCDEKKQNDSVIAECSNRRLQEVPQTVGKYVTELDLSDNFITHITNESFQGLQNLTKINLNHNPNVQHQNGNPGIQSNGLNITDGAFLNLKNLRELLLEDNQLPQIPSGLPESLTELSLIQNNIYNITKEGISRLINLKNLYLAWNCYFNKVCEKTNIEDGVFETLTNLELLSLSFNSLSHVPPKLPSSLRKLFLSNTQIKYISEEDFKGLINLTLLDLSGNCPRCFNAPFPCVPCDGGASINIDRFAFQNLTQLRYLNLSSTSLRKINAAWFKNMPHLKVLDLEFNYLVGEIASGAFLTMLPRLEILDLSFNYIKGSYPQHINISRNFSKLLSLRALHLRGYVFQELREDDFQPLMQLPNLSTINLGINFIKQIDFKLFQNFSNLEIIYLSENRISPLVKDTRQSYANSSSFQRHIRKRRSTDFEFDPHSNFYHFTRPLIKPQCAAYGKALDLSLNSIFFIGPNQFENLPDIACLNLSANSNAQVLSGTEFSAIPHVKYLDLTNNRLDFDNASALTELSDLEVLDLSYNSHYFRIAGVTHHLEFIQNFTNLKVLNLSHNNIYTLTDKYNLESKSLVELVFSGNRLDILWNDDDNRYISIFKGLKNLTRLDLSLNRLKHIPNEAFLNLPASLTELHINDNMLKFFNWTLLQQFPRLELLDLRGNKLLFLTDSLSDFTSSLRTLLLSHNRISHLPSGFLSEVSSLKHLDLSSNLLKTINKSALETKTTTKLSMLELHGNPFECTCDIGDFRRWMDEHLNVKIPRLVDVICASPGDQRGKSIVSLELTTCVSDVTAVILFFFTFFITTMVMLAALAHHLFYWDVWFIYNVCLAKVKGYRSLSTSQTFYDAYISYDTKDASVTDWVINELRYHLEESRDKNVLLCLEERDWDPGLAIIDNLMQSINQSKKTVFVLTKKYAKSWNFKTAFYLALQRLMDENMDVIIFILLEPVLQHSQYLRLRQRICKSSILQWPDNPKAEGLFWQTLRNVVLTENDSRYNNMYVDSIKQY
Outline: (§1)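 Percent inhibition reflects SEAP reduction after 22 h at 37° C, relative to agonist-plus-DMSO and known-inhibitor controls. Compounds (0.05 nM to 50 μM) were added 30 min before agonist: TLR9 cells received ODN2006 5 nM, TLR8 cells R848 15.9 μM, TLR7 cells gardiquimod 7.5 μM; human receptor-expressing HEK-Blue reporter lines.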

human TLR7 = biological target: T2, human TLR7 (Homo sapiens, UniProt Q9NYK1); assay: TLR7 inhibition reporter assay (HEK-Blue SEAP); settings: HEK-Blue cells overexpressing human TLR7, stimulated with gardiquimod 7.5 μM, 22 hour incubation
T2 construct: host or cells: HEK-Blue cells
T2 sequence (Q9NYK1 27-1049): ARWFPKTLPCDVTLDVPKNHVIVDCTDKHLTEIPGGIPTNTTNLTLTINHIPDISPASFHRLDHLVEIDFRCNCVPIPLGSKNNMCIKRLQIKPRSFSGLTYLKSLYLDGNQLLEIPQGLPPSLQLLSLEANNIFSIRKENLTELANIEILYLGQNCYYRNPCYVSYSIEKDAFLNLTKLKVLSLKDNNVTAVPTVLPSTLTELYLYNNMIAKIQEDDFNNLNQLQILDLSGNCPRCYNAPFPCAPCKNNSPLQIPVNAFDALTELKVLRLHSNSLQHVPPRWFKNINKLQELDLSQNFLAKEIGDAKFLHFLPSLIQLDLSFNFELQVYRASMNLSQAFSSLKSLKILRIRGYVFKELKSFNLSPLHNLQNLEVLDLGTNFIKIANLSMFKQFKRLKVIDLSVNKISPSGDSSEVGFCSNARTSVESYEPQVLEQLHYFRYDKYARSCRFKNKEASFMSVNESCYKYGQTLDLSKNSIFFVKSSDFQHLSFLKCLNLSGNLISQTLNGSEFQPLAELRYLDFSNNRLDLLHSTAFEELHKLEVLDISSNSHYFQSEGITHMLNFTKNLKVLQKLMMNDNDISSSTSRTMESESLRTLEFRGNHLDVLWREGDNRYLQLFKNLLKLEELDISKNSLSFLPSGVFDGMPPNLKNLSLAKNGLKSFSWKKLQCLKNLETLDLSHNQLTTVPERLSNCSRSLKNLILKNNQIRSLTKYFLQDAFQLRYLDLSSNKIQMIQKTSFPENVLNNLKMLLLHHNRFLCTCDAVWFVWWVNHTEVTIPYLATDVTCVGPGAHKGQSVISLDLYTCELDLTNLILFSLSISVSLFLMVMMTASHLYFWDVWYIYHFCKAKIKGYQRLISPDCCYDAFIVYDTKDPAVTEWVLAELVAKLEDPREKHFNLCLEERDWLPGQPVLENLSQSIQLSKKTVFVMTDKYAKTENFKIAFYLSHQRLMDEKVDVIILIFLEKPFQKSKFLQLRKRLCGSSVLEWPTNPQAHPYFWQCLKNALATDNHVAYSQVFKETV
Outline: as §1

human TLR9 = biological target: T3, human TLR9 (Homo sapiens, UniProt Q9NR96); assay: TLR9 inhibition reporter assay (HEK-Blue SEAP); settings: HEK-Blue cells overexpressing human TLR9, stimulated with ODN2006 5 nM, 22 hour incubation
T3 construct: host or cells: HEK-Blue cells
T3 sequence (Q9NR96 26-1032): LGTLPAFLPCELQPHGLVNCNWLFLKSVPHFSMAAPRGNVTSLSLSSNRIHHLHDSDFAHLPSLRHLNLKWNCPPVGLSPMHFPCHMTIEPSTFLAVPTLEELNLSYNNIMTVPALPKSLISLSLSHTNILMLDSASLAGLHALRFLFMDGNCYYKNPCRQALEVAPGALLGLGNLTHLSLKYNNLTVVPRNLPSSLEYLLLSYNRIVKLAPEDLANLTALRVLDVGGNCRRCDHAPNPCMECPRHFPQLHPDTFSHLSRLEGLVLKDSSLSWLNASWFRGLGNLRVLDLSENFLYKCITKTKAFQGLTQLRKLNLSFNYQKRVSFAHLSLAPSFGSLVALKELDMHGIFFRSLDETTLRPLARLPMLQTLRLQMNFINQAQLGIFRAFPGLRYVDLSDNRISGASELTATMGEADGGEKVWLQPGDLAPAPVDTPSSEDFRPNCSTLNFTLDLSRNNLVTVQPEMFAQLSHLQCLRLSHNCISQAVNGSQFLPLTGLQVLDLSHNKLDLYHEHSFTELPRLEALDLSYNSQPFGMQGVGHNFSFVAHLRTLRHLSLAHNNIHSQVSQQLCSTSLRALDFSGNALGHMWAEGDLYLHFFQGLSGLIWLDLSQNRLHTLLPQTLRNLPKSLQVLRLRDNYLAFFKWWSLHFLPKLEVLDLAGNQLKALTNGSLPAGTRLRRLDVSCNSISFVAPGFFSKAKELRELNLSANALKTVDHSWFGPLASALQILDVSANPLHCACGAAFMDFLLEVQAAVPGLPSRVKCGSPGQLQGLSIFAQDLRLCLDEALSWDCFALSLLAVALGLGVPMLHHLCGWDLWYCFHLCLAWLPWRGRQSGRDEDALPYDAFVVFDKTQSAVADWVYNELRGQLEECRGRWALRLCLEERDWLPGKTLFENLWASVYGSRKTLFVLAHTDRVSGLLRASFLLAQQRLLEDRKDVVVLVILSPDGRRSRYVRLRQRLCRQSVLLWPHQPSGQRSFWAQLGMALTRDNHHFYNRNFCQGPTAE
Outline: as §1

SMILES	IC50 (human TLR8) [nM]	IC50 (human TLR7) [nM]	IC50 (human TLR9) [nM]
Cc1cc2c(OC3CCC(N(C)C)CC3)n[nH]c2cc1-c1cc(C)c2ncnn2c1 (single isomer, unassigned) [Example 182, N,N-dimethyl-4-((5-methyl-6-(8-methyl-[1,2,4]triazolo[1,5-a]pyridin-6-yl)-1H-indazol-3-yl)oxy)cyclohexan-1-amine]	5.8	25.9	27400
COc1cc(-c2cc(C)c3c(OC4CCC(N(C)C)CC4)n[nH]c3c2)cn2ncnc12 (single isomer, unassigned) [Example 183, 4-((6-(8-methoxy-[1,2,4]triazolo[1,5-a]pyridin-6-yl)-4-methyl-1H-indazol-3-yl)oxy)-N,N-dimethylcyclohexan-1-amine]	8.1	4.9	2310
COc1cc(-c2cc(C)c3c(OC4CCC(N(C)C)CC4)n[nH]c3c2)cn2ncnc12 (single isomer, unassigned) [Example 184, 4-((6-(8-methoxy-[1,2,4]triazolo[1,5-a]pyridin-6-yl)-4-methyl-1H-indazol-3-yl)oxy)-N,N-dimethylcyclohexan-1-amine]	1.8	1.8	1190
Cc1cc(-c2cc(C)c3ncnn3c2)cc2[nH]nc(OC3CCC(NCC(=O)N(C)C)CC3)c12 (single isomer, unassigned) [Example 185, N,N-dimethyl-2-((4-((4-methyl-6-(8-methyl-[1,2,4]triazolo[1,5-a]pyridin-6-yl)-1H-indazol-3-yl)oxy)cyclohexyl)amino)acetamide]	9.5	20.9	2770
Cc1cc(-c2cc(C)c3ncnn3c2)cc2[nH]nc(OC3CCC(NCC(=O)N(C)C)CC3)c12 (single isomer, unassigned) [Example 186, N,N-dimethyl-2-((4-((4-methyl-6-(8-methyl-[1,2,4]triazolo[1,5-a]pyridin-6-yl)-1H-indazol-3-yl)oxy)cyclohexyl)amino)acetamide]	1.9	2.4	2550
Cc1cc(-c2cc(C)c3ncnn3c2)cc2[nH]nc(OC3CCC(NC4CC4)CC3)c12 (single isomer, unassigned) [Example 189, N-cyclopropyl-4-((4-methyl-6-(8-methyl-[1,2,4]triazolo[1,5-a]pyridin-6-yl)-1H-indazol-3-yl)oxy)cyclohexan-1-amine]	8.2	12.2	2340
Cc1cc(-c2cc(C)c3ncnn3c2)cc2[nH]nc(OC3CCC(NC4CC4)CC3)c12 (single isomer, unassigned) [Example 190, N-cyclopropyl-4-((4-methyl-6-(8-methyl-[1,2,4]triazolo[1,5-a]pyridin-6-yl)-1H-indazol-3-yl)oxy)cyclohexan-1-amine]	1.9	1.6	4510
CCc1cc2c(OC3CCC(N(C)C)CC3)n[nH]c2cc1-c1cc(C)c2ncnn2c1 (single isomer, unassigned) [Example 191, 4-((5-ethyl-6-(8-methyl-[1,2,4]triazolo[1,5-a]pyridin-6-yl)-1H-indazol-3-yl)oxy)-N,N-dimethylcyclohexan-1-amine]	0.5	2.6	14600
CCc1cc2c(OC3CCC(N(C)C)CC3)n[nH]c2cc1-c1cc(C)c2ncnn2c1 (single isomer, unassigned) [Example 192, 4-((5-ethyl-6-(8-methyl-[1,2,4]triazolo[1,5-a]pyridin-6-yl)-1H-indazol-3-yl)oxy)-N,N-dimethylcyclohexan-1-amine]	0.1	0.7	7890
Cc1cc(-c2cc3[nH]nc(C4CCC(N5CCC6(CCOC6)C5)CC4)c3cc2C(C)C)cn2ncnc12 (single isomer, unassigned) [Example 209, 7-(4-(5-isopropyl-6-(8-methyl-[1,2,4]triazolo[1,5-a]pyridin-6-yl)-1H-indazol-3-yl)cyclohexyl)-2-oxa-7-azaspiro[4.4]nonane]	0.05	0.62	8000
